Among the data in US6376484B1, “Tetrazole compounds and pharmaceutical agents containing such derivative as an active ingredient” (Ono Pharmaceutical Co., Ltd., priority 1995, dated 2002) are IC50 values, retold here.

Each structure is given as a SMILES string.

The test has as its target T1, human ICE (IL-1β converting enzyme) (Homo sapiens, UniProt P29466).
T1 sequence (P29466 120-297 limits assumed): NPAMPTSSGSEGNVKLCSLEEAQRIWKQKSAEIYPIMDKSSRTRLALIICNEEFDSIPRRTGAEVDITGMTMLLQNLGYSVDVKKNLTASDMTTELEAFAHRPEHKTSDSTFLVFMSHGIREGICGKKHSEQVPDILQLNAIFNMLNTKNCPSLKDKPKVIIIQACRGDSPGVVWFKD
T1 sequence (P29466 317-404 limits assumed): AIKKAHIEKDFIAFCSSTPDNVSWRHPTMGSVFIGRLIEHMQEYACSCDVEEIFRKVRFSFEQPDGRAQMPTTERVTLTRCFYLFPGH
Briefly: Assay for IL-1β converting enzyme (ICE) inhibition, fluorogenic substrate Ac-Tyr-Val-Ala-Asp-MCA. Type of test: biochemical. The settings on record: human ICE solution, 37° C., fluorescence, read-out: IC50, ICE inhibitory activity. As to the method: (1) Assay for IL-1β converting enzyme
The reaction mixture contains, for example, 20 mM of HEPES-NaOH pH7.4, 10 mM of KOH, 1.5 mM of MgCl2, 0.1 mM of EDTA and 10% glycerol. Various concentrations of test compounds (50 μl), human ICE solution (50 μl) and various concentrations of substrate (Ac-Tyr-Val-Ala-Asp-MCA) were mixed and incubated at 37° C. Fluorescence intensity was measured at […].
In the aboved example method,
HEPES is 4-(2-Hydroxyethyl)-1-piperazineethane-sulfonic acid,
EDTA is Ethylenediamine tetraacetate, and
Ac-Tyr-Val-Ala-Asp-MCA is Acetyl-L-tyrosyl-L-valyl-L-alanyl-L-asparaginic acid 4-methyl-coumarinyl-7-amide.

The term IC50 denotes the concentration at which inhibition is half-maximal. As for `CC(C)[C@H](NC(=O)CCc1ccccc1)C(=O)N[C@@H](C)C(=O)NC(CC(=O)O)C(=O)Cn1nnnc1Cc1c(Cl)cccc1Cl` (stereo partly drawn) [Example 2(1), N-((N-(3-phenylpropionyl)-L-valyl)-L-alanyl)-3-amino-4-oxo-5-(5-(2,6-dichlorophenylmethyl)tetrazol-1-yl)pentanoic acid], the half-inhibitory concentration (IC50) came to 30 nM.
